Structures can show the parent of a compound that is named as a salt.
Key:
NASH patient = settings: cited from earlier work
[1] = system: SD rat fed with high-fat high-sucrose diet; assay: Effectiveness in high fat diet-fed rat; assay type: in vivo; settings: HF diet 4 weeks
Protocol: 4 week old male SD rat is allowed to freely take normal diet (F-1, Funabashi Farm) or high-fat high-sucrose diet (TD88137, Harlan Teklad, hereinafter referred to as “HF diet”) for 4 weeks under 12 hour light-dark cycles at 23° C. […] The administration is conducted orally once a day. The normal group and the control group are orally administered with 5% aqueous solution of gum arabic once a day. After 4 weeks, blood is collected for determining neutrophil count and conduct biochemical tests of the plasma.

[2] = system: rats fed with methionine-choline-deficient diet (NASH-like lesion in the liver); assay type: in vivo; settings: MCD diet 20 weeks, compared to the control group; for plasma AST / plasma ALT: oral once a day; for plasma AST: EPA-E 1000 mg/kg, acetylsalicylic acid 20 mg/kg; for plasma ALT: EPA-E 1000, metformin hydrochloride 40, acetylsalicylic acid 20, simvastatin 5, valsartan 20 mg/kg
Protocol: Pharmacological action of EPA-E and/or metformin hydrochloride, acetylsalicylic acid, simvastatin, or valsartan on liver disorder and fibrosis is confirmed by using rats that have been fed with methionine-choline-deficient diet (hereinafter referred to as “MCD diet”) known to develop a NASH-like lesion in the liver.
(§1) 7 week old male Wister rats are allowed to freely take normal diet (F-1, Funabashi Farm) or MCD diet (Dyets, Inc.) for 20 weeks under 12 hour light-dark cycles at 23° C. […] The administration is conducted orally once a day. The normal group and the control group are orally administered with 5% aqueous solution of gum arabic once a day. After 20 weeks, blood is collected for biochemical tests of the plasma, and pathological tests of the liver are also conducted.

[3] = system: db/db mouse fed with MCD diet (NASH-like lesion in the liver); assay: Effectiveness in methionine-choline deficient diet diabetes model mouse; assay type: in vivo; settings: MCD diet 2 weeks, compared to the control group; for plasma ALT / plasma FFA amount: oral once a day, EPA-E 1000 mg/kg, metformin hydrochloride 80 mg/kg
Protocol: Pharmacological action of EPA-E and/or metformin hydrochloride or olmesartan medoxomil for liver disorder and fibrosis is confirmed by using diabetes model rats that have been fed with MCD diet known to induce a NASH-like lesion in the liver.
as §1, with “db/db mouse (Charles River Japan) is” for “Wister rats are”, “2” for “20”, “weeks, HOMA-IR is measured and” for “weeks,”, “test” for “tests”, “plasma.” for “plasma, and pathological tests of the liver are also conducted.”

NASH patients = assay: Administration to patients with the definitive diagnosis of NASH for one year; assay type: in vivo, human
Protocol: Patients with the definitive diagnosis of NASH are divided into 8 groups (each group consisting of 15 patients). EPA-E group is administered with Epadel S (Registered Trademark) 900 (containing 900 mg of EPA-E) twice a day. […] Administration of the Melbin (Registered Trademark) tablet is started from once a day, the dose is adequately adjusted depending on the conditions of the patient, and after 5 weeks from the start of the administration, the dose may be increased to twice a day, and after 9 weeks from the start of the administration, the dose may be increased to 3 times a day. The dose is adequately adjusted depending on the conditions of the patient. […] Administration of the Bayaspirin (Registered Trademark) tablet is started from twice a day at 10 tablet in total, and after 5 weeks from the start of the administration, the dose is reduced to once a day at 1 tablet in total. The dose is adequately adjusted depending on the conditions of the patient. […] Candesartan group is administered with Blopress (Registered Trademark) tablet 2 (containing 2 mg of candesartan cilexetil), and candesartan combination group is administered with Blopress (Registered Trademark) tablet 2 and Epadel S (Registered Trademark) 900 twice a day. Administration of the Mevalotin (Registered Trademark) tablet 5 and Blopress (Registered Trademark) tablet 2 is started from 1 tablet once a day, and after 5 weeks from the start of the administration, the dose is increased to twice a day at 2 tablets in total, and after 9 weeks from the start of the administration, the dose is further increased to twice a day at 4 tablets in total. The dose is adequately adjusted depending on the conditions of the patient. Criteria, monitoring, histological tests, statistical analysis of the patients are conducted according to the methods described in Am. J. Gastroenterol. 2001; 96: 2711-2717. Measurement of blood neutrophil count and HOMA-IR, blood biochemical tests such as ALT and AST are occasionally conducted during the administration period of one year, and liver biopsy is conducted after completing the administration for histological evaluation.

[4] = NASH patient also suffering from hypertension, oral 50 mg/day for 48 weeks, Non-Patent Literature 9
[5] = NASH patient, oral 1500 mg/day for 4 months, Non-Patent Literature 4
[6] = oral once a day, compared to the control group, EPA-E 1000 mg/kg, atorvastatin calcium hydrate 10 mg/kg
[7] = administration period of one year, EPA-E group (Epadel S 900 twice a day) compared to the measurements before the treatment
[8] = one year, Epadel S 900 (900 mg EPA-E) twice a day, compared to the measurements before the treatment
[9] = EPA-E 1000 mg/kg oral once a day

## CCCCc1nc(Cl)c(CO)n1Cc1ccc(-c2ccccc2-c2nn[nH]n2)cc1 [losartan]
NASH patient; [4]
  ALT: improvement
  ferritin: improvement
  type IV collagen: improvement

## CC(=O)Oc1ccccc1C(=O)O [acetylsalicylic acid]
[1]; acetylsalicylic acid 10 mg/kg oral once a day
  improvement of the parameters over the control group: does not exhibit significant improvement
[2]; acetylsalicylic acid 20 mg/kg oral once a day
  effects on plasma and liver parameters like those of the EPA-E group: does not exhibit effects like those of the EPA-E group
[2]
  plasma AST: exacerbated
  plasma ALT: exacerbated

## CCCCC(=O)N(Cc1ccc(-c2ccccc2-c2nnn[nH]2)cc1)[C@H](C(=O)O)C(C)C [valsartan]
[2]
  plasma ALT: suppression of the increase

## CN(C)C(=N)N=C(N)N [metformin, metformin hydrochloride]
NASH patient; [5]
  lactic acid level: significant increase
  serum alanine aminotransferase (ALT) level: significant decrease
[3]; metformin hydrochloride 80 mg/kg oral once a day
  HOMA-IR: improved
[3]
  plasma ALT: suppressed increase
  plasma FFA amount: suppressed increase
[2]
  plasma ALT: suppression of the increase

## CC(C)c1c(C(=O)Nc2ccccc2)c(-c2ccccc2)c(-c2ccc(F)cc2)n1CC[C@@H](O)C[C@@H](O)CC(=O)O [atorvastatin, atorvastatin calcium hydrate]
[1]; [6]
  IL-6: suppressed increase
  TNFα: suppressed increase
  ferritin: suppressed increase
  high sensitivity CPR: suppressed increase
  neutrophil count: suppressed increase
  thioredoxin: suppressed increase
  type IV collagen: suppressed increase

## CC/C=C\C/C=C\C/C=C\C/C=C\C/C=C\CCCC(=O)OCC [EPA-E, ethyl icosapentate]
NASH patient; 2700 mg/day of high purity EPA-E for 12 months, Tanaka et al., Non-Patent Literature 3
  NASH (AST or ALT enzyme, inflammatory cytokine or oxidative stress marker, liver biopsy): amelioration of NASH was demonstrated
NASH patients; [7]
  AST: decrease
  HOMA-IR: improved
  IL-6: decrease
  TNFα: decrease
  adiponectin: increases
  ferritin: decrease
  fibrosis marker: decrease
  high sensitivity CPR: decrease
  thioredoxin: decrease
NASH patients; liver biopsy after one year, EPA-E group compared to the condition before the administration
  pathological test image of the liver tissue, overall rating of fat accumulation grade, inflammation grade and fibrosis stage by Brunt method: improves
NASH patients; [8]
  AZT: decrease
  blood neutrophil count: decrease
[3]; [9]
  TNFα: suppressed increase
  plasma AST: suppressed increase
  plasma TIMP-1: suppressed increase
  plasma adiponectin amount: suppressed decrease
  plasma hyaluronic acid: suppressed increase
  plasma type IV collagen: suppressed increase
[3]
  plasma ALT: suppressed increase
  plasma FFA amount: suppressed increase
[1]; [6]
  IL-6: suppressed increase
  TNFα: suppressed increase
  ferritin: suppressed increase
  high sensitivity CPR: suppressed increase
  neutrophil count: suppressed increase
  plasma ALT: suppressed increase
  plasma AST: suppressed increase
  thioredoxin: suppressed increase
  type IV collagen: suppressed increase
[2]; [9]
  liver hydroxyproline content: suppressed increase
  plasma TIMP-1 content: suppressed increase
  plasma albumin: suppressed increase
  plasma choline esterase: suppressed increase
  plasma hyaluronic acid: suppressed increase
  plasma total bilirubin: suppressed increase
  plasma total protein: suppressed increase
  plasma type Iv collagen: suppressed increase
[2]
  plasma AST: suppressed increase
  plasma ALT: suppressed increase
[2]; Masson's trichrome stain, EPA-E 1000 mg/kg oral once a day
  fibrosis area of liver: suppressed increase

From patent publication US20110082119A1, “PROPHYLACTIC/AMELIORATING OR THERAPEUTIC AGENT FOR NON-ALCOHOLIC STEATOHEPATITIS” (priority 2008, published 2011)
